According to US6835752B2, “Carboxylic acid derivatives, processes for the preparation thereof and pharmaceutical agents comprising the same as active ingredient” (Ono Pharmaceutical Co., Ltd., priority 2000, dated 2004):

Assays:
Conditions in all cases: CHO cell membrane fraction, competition with [3H]-PGE2 2.5 nM
mouse EP3α receptor = biological target: T1, mouse EP3α receptor (Mus musculus, UniProt P30557); assay: Binding assay using cell expressing the prostanoid receptor subtypes (EP3)
T1 construct: expressed in transfected cells; host or cells: CHO cells
T1 sequence (P30557 1-365): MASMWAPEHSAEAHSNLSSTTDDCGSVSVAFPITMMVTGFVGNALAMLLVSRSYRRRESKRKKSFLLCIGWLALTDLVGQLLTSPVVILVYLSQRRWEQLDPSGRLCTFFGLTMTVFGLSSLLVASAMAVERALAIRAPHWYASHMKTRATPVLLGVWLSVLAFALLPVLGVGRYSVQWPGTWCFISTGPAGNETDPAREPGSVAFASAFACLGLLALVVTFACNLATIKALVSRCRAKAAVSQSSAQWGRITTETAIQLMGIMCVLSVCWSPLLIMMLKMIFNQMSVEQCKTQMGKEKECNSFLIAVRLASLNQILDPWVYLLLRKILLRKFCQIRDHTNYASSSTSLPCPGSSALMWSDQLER
Experimental: (§1) (i) Binding Assay Using Cell Expressing the Prostanoid Receptor Subtypes
(§2) The preparation of membrane fraction was carried out according to the method of Sugimoto et al [J. Biol. Chemical, 267, 6463-6466 (1992)], using CHO cell expressing prostanoid receptor subtypes (mouse EP1, EP2, EP3α, and EP4).
(§3) The standard assay mixture containing membrane fraction (50 μL), [^3H]—PGE2 in a final volume of 150 μL was incubated for 1 hour at room temperature. The reaction was terminated by addition of 3 mL of ice-cold buffer. The mixture was rapidly filtered through a glass filter (GF/B) under reduced pressure. The radioactivities associated with the filters were measured by liquid scintillation counter.
(§4) Kd and Bmax values were determined from Scatchard plots [Ann. N. Y. Acad. Sci. 51, 660(1949)]. Non-specific binding was determined as the amount bound in the presence of an excess (2.5 μM of unlabeled PGE2. In the experiment for competition of specific [^3H]—PGE2 binding assay, [^3H]—PGE2, was added at a concentration of 2.5 nM and a test compound of the present invention was added at various concentrations. The following buffer was used in all reactions.
(§5) Buffer: 10 mM potassium phosphate (pH 6.0), 1 mM EDTA, 10 mM MgCl2, 0.1 M NaCl.
(§6) The inhibition constant (Ki) (μM) of each compound was calculated by the following equation.

mouse EP1 receptor = biological target: T2, mouse EP1 receptor (Mus musculus, UniProt P35375); assay: Binding assay using cell expressing the prostanoid receptor subtypes (EP1)
T2 construct: expressed in transfected cells; host or cells: CHO cells
T2 sequence (P35375 1-405): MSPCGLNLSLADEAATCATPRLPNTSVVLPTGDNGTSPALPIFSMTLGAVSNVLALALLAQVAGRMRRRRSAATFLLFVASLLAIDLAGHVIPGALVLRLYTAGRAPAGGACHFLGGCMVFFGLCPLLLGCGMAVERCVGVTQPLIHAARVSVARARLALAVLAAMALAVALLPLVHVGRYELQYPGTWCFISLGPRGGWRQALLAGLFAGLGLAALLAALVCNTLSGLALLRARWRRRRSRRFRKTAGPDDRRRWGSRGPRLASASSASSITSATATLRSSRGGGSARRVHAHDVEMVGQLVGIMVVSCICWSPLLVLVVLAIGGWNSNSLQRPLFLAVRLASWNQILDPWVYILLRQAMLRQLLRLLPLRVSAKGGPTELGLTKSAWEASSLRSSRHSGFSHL
Experimental: as §1, §2, §3, §4, §5, §6

mouse EP4 receptor = biological target: T3, mouse EP4 receptor (Mus musculus, UniProt P32240); assay: Binding assay using cell expressing the prostanoid receptor subtypes (EP4)
T3 construct: expressed in transfected cells; host or cells: CHO cells
Experimental: as §1, §2, §3, §4, §5, §6

mouse EP2 receptor = biological target: T4, mouse EP2 receptor (Mus musculus, UniProt Q62053); assay: Binding assay using cell expressing the prostanoid receptor subtypes (EP2)
T4 construct: expressed in transfected cells; host or cells: CHO cells
Experimental: as §1, §2, §3, §4, §5, §6

T3 sequence (P32240 whole entry): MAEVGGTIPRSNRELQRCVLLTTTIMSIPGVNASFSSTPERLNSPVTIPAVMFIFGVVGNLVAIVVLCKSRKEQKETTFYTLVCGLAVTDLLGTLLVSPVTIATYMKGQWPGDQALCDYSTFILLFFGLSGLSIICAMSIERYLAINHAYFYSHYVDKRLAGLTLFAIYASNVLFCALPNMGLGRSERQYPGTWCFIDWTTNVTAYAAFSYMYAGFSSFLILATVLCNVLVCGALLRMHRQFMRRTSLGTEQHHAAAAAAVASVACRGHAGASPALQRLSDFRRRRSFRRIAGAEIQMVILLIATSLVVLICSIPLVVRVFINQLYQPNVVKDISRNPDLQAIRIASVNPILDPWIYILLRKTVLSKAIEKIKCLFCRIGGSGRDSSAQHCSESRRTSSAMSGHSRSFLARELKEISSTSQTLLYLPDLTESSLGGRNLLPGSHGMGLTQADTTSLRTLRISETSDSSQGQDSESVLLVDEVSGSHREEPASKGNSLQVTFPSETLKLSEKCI
T4 sequence (Q62053 whole entry): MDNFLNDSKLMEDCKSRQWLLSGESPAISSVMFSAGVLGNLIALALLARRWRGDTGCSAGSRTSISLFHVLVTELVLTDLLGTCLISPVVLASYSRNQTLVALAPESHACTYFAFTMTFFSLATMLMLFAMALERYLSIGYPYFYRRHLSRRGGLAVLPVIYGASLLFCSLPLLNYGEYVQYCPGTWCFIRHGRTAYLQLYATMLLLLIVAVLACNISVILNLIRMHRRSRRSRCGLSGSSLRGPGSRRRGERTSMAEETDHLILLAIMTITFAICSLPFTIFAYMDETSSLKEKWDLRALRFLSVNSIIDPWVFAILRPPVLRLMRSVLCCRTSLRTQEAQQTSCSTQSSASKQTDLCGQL

- Ki (mouse EP3α receptor): 2.4 µM
- Ki (mouse EP1 receptor): > 10 µM
- Ki (mouse EP4 receptor): 0.3 µM
- Ki (mouse EP2 receptor): > 10 µM
Compound: CC(C(=O)Nc1ccccc1CCCC(=O)O)c1cccc2ccccc12 (stereo not shown) [Example 2, 4-[2-[2-(1-naphthyl)propanoylamino]phenyl]butanoic acid]
